Laboratory results as given in ChEMBL document CHEMBL1143795, “Synthesis and antimalarial activity of new 1,12-bis(N,N'-acetamidinyl)dodecane derivatives” (Bioorg Med Chem Lett, 2007).

What follows are molecules tested on Plasmodium falciparum (assay: microbe, parasite or virus in culture). Details: W2.
Description: Antimalarial activity against Plasmodium falciparum W2

Row | SMILES | IC50
1 | CC(=N)NCCCCCCCCCCCCNC(C)=N | 8.1 nM

Each molecule was assayed on Plasmodium falciparum (assay: microbe, parasite or virus in culture). Details: FCM29.
Description: Antimalarial activity against Plasmodium falciparum FCM29

Row | SMILES | IC50
2 | CC(=N)NCCCCCCCCCCCCNC(C)=N | 4 nM

These molecules were tested on Plasmodium falciparum (assay: Antimalarial activity against Plasmodium falciparum Nigerian). Details: not given.
Format: functional, organism-based

Row | SMILES | IC50
3 | C/C(=N\OC(=O)Nc1ccccc1)NCCCCCCCCCCCCN/C(C)=N/OC(=O)Nc1ccccc1 | 135 nM
4 | C/C(=N\OS(C)(=O)=O)NCCCCCCCCCCCCN/C(C)=N/OS(C)(=O)=O | 12 nM
5 | C/C(=N\OC(=O)c1ccccc1)NCCCCCCCCCCCCN/C(C)=N/OC(=O)c1ccccc1 | 68.7 nM
6 | CO/N=C(\C)NCCCCCCCCCCCCN/C(C)=N/OC | 4350 nM
7 | Cc1noc(=O)n1CCCCCCCCCCCCn1c(C)noc1=O | 7100 nM
8 | C/C(=N\O)NCCCCCCCCCCCCN/C(C)=N/O | 310 nM
9 | CC(=O)O/N=C(\C)NCCCCCCCCCCCCN/C(C)=N/OC(C)=O | 1800 nM
10 | CCNC(=O)O/N=C(\C)NCCCCCCCCCCCCN/C(C)=N/OC(=O)NCC | 93 nM
11 | CCOP(=O)(OCC)O/N=C(\C)NCCCCCCCCCCCCN/C(C)=N/OP(=O)(OCC)OCC | 9.6 nM

Each molecule was assayed on Plasmodium vinckei petteri (assay: Antimalarial activity against Plasmodium vinckei petteri 279BY infected peroral dosed Swiss mice (Mus musculus)). Details: po.
Format: functional

Row | SMILES | ED50
12 | C/C(=N\OC(=O)Nc1ccccc1)NCCCCCCCCCCCCN/C(C)=N/OC(=O)Nc1ccccc1 | > 90 mg/kg
13 | C/C(=N\OS(C)(=O)=O)NCCCCCCCCCCCCN/C(C)=N/OS(C)(=O)=O | 42 mg/kg
14 | CC(=N)NCCCCCCCCCCCCNC(C)=N | > 200 mg/kg
15 | C/C(=N\OC(=O)c1ccccc1)NCCCCCCCCCCCCN/C(C)=N/OC(=O)c1ccccc1 | > 90 mg/kg
16 | CO/N=C(\C)NCCCCCCCCCCCCN/C(C)=N/OC | 110 mg/kg
17 | Cc1noc(=O)n1CCCCCCCCCCCCn1c(C)noc1=O | 62 mg/kg
18 | C/C(=N\O)NCCCCCCCCCCCCN/C(C)=N/O | 90 mg/kg
19 | CC(=O)O/N=C(\C)NCCCCCCCCCCCCN/C(C)=N/OC(C)=O | > 90 mg/kg
20 | CCNC(=O)O/N=C(\C)NCCCCCCCCCCCCN/C(C)=N/OC(=O)NCC | > 90 mg/kg
21 | CCOP(=O)(OCC)O/N=C(\C)NCCCCCCCCCCCCN/C(C)=N/OP(=O)(OCC)OCC | > 90 mg/kg

What follows are molecules tested on Plasmodium vinckei petteri (assay: Antimalarial activity against Plasmodium vinckei petteri 279BY infected intraperitoneal dosed Swiss mice (Mus musculus)). Details: ip.
Format: functional

Row | SMILES | ED50
22 | C/C(=N\OC(=O)Nc1ccccc1)NCCCCCCCCCCCCN/C(C)=N/OC(=O)Nc1ccccc1 | 10 mg/kg
23 | C/C(=N\OS(C)(=O)=O)NCCCCCCCCCCCCN/C(C)=N/OS(C)(=O)=O | 4.7 mg/kg
24 | CC(=N)NCCCCCCCCCCCCNC(C)=N | 3.1 mg/kg
25 | C/C(=N\OC(=O)c1ccccc1)NCCCCCCCCCCCCN/C(C)=N/OC(=O)c1ccccc1 | > 9 mg/kg
26 | CO/N=C(\C)NCCCCCCCCCCCCN/C(C)=N/OC | > 10 mg/kg
27 | Cc1noc(=O)n1CCCCCCCCCCCCn1c(C)noc1=O | > 9 mg/kg
28 | C/C(=N\O)NCCCCCCCCCCCCN/C(C)=N/O | 9.2 mg/kg
29 | CC(=O)O/N=C(\C)NCCCCCCCCCCCCN/C(C)=N/OC(C)=O | 7.1 mg/kg
30 | CCNC(=O)O/N=C(\C)NCCCCCCCCCCCCN/C(C)=N/OC(=O)NCC | > 10 mg/kg
31 | CCOP(=O)(OCC)O/N=C(\C)NCCCCCCCCCCCCN/C(C)=N/OP(=O)(OCC)OCC | > 9 mg/kg
